Holding throughout (format): biochemical
One assay concerns the target hPDE10A (Homo sapiens, UniProt Q9Y233). Put plainly: PDE10 inhibition assay (IC50), Experimental Example 3. To be noted: for IC50: hPDE10A, read-out: PDE inhibition assay IC50, PDE10. The method, boiled down:
(§1)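 Recombinant human enzymes incubated with compound and 3 nmol/L cAMP (final) in Tris-HCl pH 7.5 buffer with MgCl2, BSA, DTT, 2% DMSO final, 60 min at room temperature. Residual cAMP measured by TR-FRET (LANCE Ultra), reaction stopped with 0.5 mmol/L IBMX. IC50 from inhibition relative to no-compound (0%) and no-enzyme (100%) controls.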

The next assay addresses T1, Human PDE7B (hPDE7B) (Homo sapiens, UniProt Q9NP56).
T1 construct: made in house; host or cells: COS-7 cells
Put plainly: Measurement of PDE7 inhibitory activity (Experimental Example 1; residual cAMP, LANCE Ultra cAMP TR-FRET). To be noted: cAMP 3 nmol/L, room temperature 60 minutes. The method, boiled down:
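hPDE7B from transfected COS-7 cells reacted with 3 nmol/L cAMP (final) and compound (2% DMSO) in 50 mmol/L Tris-HCl pH 7.5, 1 mmol/L MgCl2, 0.1% BSA, 0.5 mmol/L DTT, 60 min at room temperature. Reaction stopped with IBMX; residual cAMP measured by TR-FRET. Inhibition scaled between no-compound and no-enzyme controls.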
On the technique in general: TR-FRET usually uses a lanthanide donor and a delayed reading to cut background.

The target in the next assay is T2, hPDE8B (Homo sapiens, UniProt O95263).
T2 construct: purchased SB Drug Discovery
T2 sequence (O95263 whole entry): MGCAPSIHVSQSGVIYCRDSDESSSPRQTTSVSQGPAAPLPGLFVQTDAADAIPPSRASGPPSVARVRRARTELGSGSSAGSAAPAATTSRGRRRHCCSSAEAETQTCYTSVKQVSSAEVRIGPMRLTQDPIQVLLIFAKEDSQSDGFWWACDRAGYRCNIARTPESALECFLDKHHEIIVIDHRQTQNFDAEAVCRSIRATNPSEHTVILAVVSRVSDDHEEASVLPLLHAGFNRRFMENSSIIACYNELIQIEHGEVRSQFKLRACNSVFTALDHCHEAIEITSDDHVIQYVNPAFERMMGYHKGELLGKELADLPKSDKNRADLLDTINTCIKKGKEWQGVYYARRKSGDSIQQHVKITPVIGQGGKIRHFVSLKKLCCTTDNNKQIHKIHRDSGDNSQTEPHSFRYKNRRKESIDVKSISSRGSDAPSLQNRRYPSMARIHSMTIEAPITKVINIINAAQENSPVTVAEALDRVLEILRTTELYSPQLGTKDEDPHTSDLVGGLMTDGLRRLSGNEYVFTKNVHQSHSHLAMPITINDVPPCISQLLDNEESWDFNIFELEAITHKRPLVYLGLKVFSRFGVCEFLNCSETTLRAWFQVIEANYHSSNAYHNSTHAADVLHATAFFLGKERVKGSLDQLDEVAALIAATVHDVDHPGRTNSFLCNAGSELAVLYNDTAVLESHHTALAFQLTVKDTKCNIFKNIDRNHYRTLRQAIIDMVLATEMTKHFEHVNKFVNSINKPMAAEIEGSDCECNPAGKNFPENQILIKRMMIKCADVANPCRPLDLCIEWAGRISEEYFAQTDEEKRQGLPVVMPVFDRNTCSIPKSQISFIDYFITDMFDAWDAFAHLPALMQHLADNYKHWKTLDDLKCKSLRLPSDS
In words: PDE8 inhibition assay (IC50), Experimental Example 3. To be noted: for IC50: hPDE8B, read-out: PDE inhibition assay IC50, PDE8. The method, boiled down: as §1

The target in a further assay is T3, hPDE4D (Homo sapiens, UniProt Q08499).
T3 construct: purchased SB Drug Discovery
T3 sequence (Q08499 whole entry): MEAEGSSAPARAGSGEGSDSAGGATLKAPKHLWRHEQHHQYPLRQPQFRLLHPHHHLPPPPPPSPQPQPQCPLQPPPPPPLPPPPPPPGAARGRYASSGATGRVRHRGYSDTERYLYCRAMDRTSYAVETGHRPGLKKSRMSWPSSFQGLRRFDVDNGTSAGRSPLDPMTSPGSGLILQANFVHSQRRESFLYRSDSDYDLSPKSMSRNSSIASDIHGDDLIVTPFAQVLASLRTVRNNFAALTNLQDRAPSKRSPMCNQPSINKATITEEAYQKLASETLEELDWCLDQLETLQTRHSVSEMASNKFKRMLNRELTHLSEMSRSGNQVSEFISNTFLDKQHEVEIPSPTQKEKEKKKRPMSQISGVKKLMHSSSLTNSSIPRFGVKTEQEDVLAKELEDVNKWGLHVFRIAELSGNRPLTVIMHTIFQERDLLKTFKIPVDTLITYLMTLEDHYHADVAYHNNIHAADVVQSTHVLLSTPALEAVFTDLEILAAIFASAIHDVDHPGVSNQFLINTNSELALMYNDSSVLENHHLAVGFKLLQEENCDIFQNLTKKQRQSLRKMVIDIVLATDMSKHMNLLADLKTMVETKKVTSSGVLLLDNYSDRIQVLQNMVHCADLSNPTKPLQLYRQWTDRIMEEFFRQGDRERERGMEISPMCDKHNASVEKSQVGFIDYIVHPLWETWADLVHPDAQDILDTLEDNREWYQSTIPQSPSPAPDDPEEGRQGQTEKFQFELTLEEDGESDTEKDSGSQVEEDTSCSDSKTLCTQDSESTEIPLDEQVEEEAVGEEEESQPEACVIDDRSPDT
In words: PDE4 inhibition assay (IC50), Experimental Example 3. To be noted: for IC50: hPDE4D, read-out: PDE inhibition assay IC50, PDE4. In short, it runs like this:
as §1

[1] abbreviates: at 1 μmol/L, read-out: inhibition rate (%) at prescribed concentration, PDE8.

Molecules are shown by their SMILES.

Chain of hPDE10A (Q9Y233 290-1055 limits assumed): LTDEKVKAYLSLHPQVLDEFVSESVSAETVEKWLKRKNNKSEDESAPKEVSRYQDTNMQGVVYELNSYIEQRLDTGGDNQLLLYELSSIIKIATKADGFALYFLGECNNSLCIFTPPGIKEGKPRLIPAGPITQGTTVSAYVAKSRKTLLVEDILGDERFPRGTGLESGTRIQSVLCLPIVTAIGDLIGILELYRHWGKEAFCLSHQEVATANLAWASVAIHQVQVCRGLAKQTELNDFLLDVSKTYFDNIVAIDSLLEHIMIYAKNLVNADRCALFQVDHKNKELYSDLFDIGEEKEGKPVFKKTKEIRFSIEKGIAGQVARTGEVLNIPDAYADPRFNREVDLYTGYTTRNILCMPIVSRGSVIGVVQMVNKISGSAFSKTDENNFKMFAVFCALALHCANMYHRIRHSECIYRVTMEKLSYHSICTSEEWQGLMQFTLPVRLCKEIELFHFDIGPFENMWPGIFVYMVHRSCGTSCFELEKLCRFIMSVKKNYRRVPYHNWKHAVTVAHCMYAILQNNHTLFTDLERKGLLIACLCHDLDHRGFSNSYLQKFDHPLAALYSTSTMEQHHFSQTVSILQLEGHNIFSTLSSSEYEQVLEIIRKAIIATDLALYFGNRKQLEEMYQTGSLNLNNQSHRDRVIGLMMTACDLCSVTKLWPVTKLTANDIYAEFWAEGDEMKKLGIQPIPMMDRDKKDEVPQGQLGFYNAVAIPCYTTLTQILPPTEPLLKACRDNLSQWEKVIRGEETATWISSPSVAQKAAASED
T1 sequence (Q9NP56 whole entry): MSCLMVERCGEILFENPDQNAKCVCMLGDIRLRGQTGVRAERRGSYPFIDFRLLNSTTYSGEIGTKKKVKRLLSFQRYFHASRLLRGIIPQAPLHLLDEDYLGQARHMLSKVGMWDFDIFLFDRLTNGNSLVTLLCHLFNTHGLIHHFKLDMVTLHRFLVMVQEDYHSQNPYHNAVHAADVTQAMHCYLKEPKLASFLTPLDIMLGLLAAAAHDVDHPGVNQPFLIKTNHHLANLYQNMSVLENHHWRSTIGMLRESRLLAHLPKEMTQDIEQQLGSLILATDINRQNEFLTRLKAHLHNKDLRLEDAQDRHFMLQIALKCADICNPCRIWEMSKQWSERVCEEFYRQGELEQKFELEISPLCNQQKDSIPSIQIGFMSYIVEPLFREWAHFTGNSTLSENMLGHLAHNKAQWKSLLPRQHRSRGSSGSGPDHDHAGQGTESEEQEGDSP

What is called IC50 is the concentration needed to halve the response being measured. Consider `Nc1ncnn2c(C3CCCC(C(F)(F)F)C3)nnc12` (single isomer, unassigned) [Example 244, 3-[cis-3-(trifluoromethyl)cyclohexyl][1,2,4]triazolo[3,4-f][1,2,4]triazin-8-amine], for which the IC50 on hPDE10A was 52.6 µM; against Human PDE7B (hPDE7B), < 0.01 µM; on hPDE4D, 1.6 µM. Further, on hPDE8B (setting [1]), the inhibition at 1 µM came to 73%.

Regarding `Nc1nccn2c(N3CCCCC34CC4)nnc12` [Example 38], the concentration for half-maximal inhibition (IC50) at hPDE10A was 25 µM; against Human PDE7B (hPDE7B) it was 0.08 µM; on hPDE8B, 2.74 µM; on hPDE4D, 5.21 µM.

Consider `CC1CCN(c2nnc3c(N)nccn23)CC1` [Example 28], for which the IC50 on hPDE10A came out at 28.4 µM; at Human PDE7B (hPDE7B), 0.09 µM; on hPDE8B it was 3.7 µM; at hPDE4D it was 4.3 µM.

For `CC1CCCCC1c1nnc2c(N)ncnn12` (single isomer, unassigned) [Example 70, 3-(cis-2-methylcyclohexyl) [1,2,4]triazolo[3,4-f][1,2,4]triazin-8-amine], the figures for the IC50 at hPDE10A and against Human PDE7B (hPDE7B) were 1.8 µM and 0.025 µM, respectively. Further, the “inhibition rate (%) at prescribed concentration, PDE8” value against hPDE8B (at 1 μmol/L) is given as 64% at 1. Also, the “inhibition rate (%) at prescribed concentration, PDE4” value at hPDE4D (at 1 μmol/L) was 67% at 1.

As to `CC1CC(c2nnc3c(N)nccn23)CC(F)(F)C1` (single isomer, unassigned) [Example 216, 3-(trans-3,3-difluoro-5-methylcyclohexyl[1,2,4]triazolo[4,3-a]pyrazin-8-amine], the concentration for half-maximal inhibition (IC50) on hPDE10A amounted to 37.9 µM; against Human PDE7B (hPDE7B), 0.05 µM; on hPDE8B, 16.6 µM; on hPDE4D, 30.6 µM.

As for `C[C@H]1CC[C@@H](n2nnc3c(N)ncnc32)CC1` [Example 99, 3-(cis-4-methylcyclohexyl)-3H-[1,2,3]triazolo[4,5-d]pyrimidin-7-amine], on hPDE10A (at 10 μmol/L, read-out: inhibition rate (%) at prescribed concentration, PDE10), the inhibition at 10 µM was 38%. The concentration for half-maximal inhibition (IC50) was determined as 0.02 µM against Human PDE7B (hPDE7B), 0.12 µM at hPDE8B and 1.6 µM on hPDE4D.

For `Nc1nccn2c([C@@H]3C[C@@H]4[C@H](C3)C4(F)F)nnc12` [Example 160], the half-maximal inhibitory concentration (IC50) stood at 34.9 µM at hPDE10A, 0.08 µM against Human PDE7B (hPDE7B) and 3.41 µM on hPDE4D. Further, at hPDE8B (setting [1]), the inhibition at 1 µM was determined as 54%.

`CC1(C)CC(c2nnc3c(N)nccn23)CC(F)(F)C1` (single isomer, unassigned) [Example 177, 3-(3,3-difluoro-5,5-dimethylcyclohexyl) [1,2,4]triazolo[4,3-a]pyrazin-8-amine]: the half-maximal inhibitory concentration (IC50) at hPDE10A turned out to be 13.3 µM; against Human PDE7B (hPDE7B), 0.035 µM; on hPDE8B, 13.7 µM; at hPDE4D, 21 µM.

For `CC1(C)CCC(n2nnc3c(N)ncnc32)CC1` [Example 101, 3-(4,4-dimethylcyclohexyl)-3H-[1,2,3]triazolo[4,5-d]pyrimidin-7-amine], the IC50 on hPDE10A was determined as 5.84 µM; against Human PDE7B (hPDE7B), 0.02 µM; at hPDE4D it was 0.64 µM. Also, the inhibition at 0.1 µM on hPDE8B (at 0.1 μmol/L, read-out: inhibition rate (%) at prescribed concentration, PDE8) is 69%.

Regarding `CC1CCN(c2nnc3c(N)nccn23)CC1C` (single isomer, unassigned) [Example 231, 3-(3,4-dimethylpiperidin-1-yl) [1,2,4]triazolo[4,3-a]pyrazin-8-amine], the half-maximal inhibitory concentration (IC50) worked out at 4.8 µM at hPDE10A, 0.01 µM against Human PDE7B (hPDE7B), 2.1 µM on hPDE8B and 3.6 µM at hPDE4D.

For the molecule `CC1CCC(C)N(c2nnc3c(N)ncc(C#N)n23)C1` (single isomer, unassigned) [Example 234, 8-amino-3-(2,5-dimethylpiperidin-1-yl) [1,2,4]triazolo[4,3-a]pyrazine-5-carbonitrile], the IC50 amounted to 3.2 µM on hPDE10A, 0.00015 µM against Human PDE7B (hPDE7B), 2.7 µM at hPDE8B and 6.3 µM on hPDE4D.

As for `CC1CCC(F)(F)CC1c1nnc2c(N)nccn12` (stereo not drawn) [Example 153], the IC50 on hPDE10A is 18.6 µM; against Human PDE7B (hPDE7B), 0.07 µM; at hPDE8B it was 21.9 µM; at hPDE4D, 35.1 µM.

Source of the values: patent US20190185479A1, “BICYCLIC NITROGENATED HETEROCYCLIC COMPOUND” (MITSUBISHI TANABE PHARMA CORPORATION, priority 2016, published 2019).
